Results: ChEMBL document CHEMBL2176908, “Structure-aided design of novel inhibitors of HIV protease based on a benzodiazepine scaffold” (J Med Chem, 2012)
Activity calls are given as the source filed them. The rule behind the calls is not given here.

Assays:
Protease [1] = target: T1, Protease (Human immunodeficiency virus 1, UniProt Q9YQ12); assay: Inhibition of HIV1 protease by spectrophotometric assay
Protease [2] = target: T1, Protease; assay: Inhibition of HIV1 protease by double-reciprocal Lineweaver-Burk plot; conditions: read-out: Ki(app)
[3] = target: Cathepsin D (Homo sapiens) (UniProt P07339); assay: Inhibition of human cathepsin D spectrofluorometry
Cathepsin D (Homo sapiens), sequence (P07339 65-162 limits assumed): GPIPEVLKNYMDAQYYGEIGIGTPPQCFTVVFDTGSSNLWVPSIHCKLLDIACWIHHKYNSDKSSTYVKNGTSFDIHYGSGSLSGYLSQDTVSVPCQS
Cathepsin D (Homo sapiens), sequence (P07339 169-412 limits assumed): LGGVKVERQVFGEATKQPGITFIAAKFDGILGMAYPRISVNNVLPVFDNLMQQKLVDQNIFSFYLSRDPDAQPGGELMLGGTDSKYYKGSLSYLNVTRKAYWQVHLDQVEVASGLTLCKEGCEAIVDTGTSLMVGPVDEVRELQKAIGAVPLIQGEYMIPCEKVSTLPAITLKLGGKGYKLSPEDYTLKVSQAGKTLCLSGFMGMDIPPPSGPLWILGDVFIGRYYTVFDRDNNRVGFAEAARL

Papain (Carica papaya) = target: T2, Papain (Carica papaya) (UniProt P00784); assay: Inhibition of papaya papain by spectrofluorometry
T2 sequence (whole entry): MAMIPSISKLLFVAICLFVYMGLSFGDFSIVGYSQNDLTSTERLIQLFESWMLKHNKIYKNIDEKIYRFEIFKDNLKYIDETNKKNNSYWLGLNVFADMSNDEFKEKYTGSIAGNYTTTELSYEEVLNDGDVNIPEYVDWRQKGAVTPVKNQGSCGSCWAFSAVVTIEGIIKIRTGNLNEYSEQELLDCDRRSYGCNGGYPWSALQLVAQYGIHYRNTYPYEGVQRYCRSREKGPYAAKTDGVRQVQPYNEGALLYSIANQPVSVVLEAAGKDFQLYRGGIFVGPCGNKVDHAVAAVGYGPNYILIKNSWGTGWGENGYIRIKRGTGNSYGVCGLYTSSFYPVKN

T1 sequence (Q9YQ12 whole entry): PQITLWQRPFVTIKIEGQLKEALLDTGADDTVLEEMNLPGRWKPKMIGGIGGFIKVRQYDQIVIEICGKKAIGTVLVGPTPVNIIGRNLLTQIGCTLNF

Row | Compound | IC50 (Protease [1]) | Ki (Protease [2]) | inhibition [3] | inhibition (Papain (Carica papaya))
1 | CC1(C)CC(=O)C2=C(C1)Nc1ccccc1N(C(=O)C(=O)N1CC3=C(CC(C)(C)CC3=O)Nc3ccccc31)C2 | 0.2 µM | ≤ 0.012 µM | – | –
2 | CC1(C)CC(=O)C2=C(C1)Nc1ccccc1N(C(=O)C(=O)N1c3ccccc3NC3=C(C(=O)CC(C)(C)C3)[C@H]1c1ccccc1)[C@H]2c1ccccc1 | > 1 µM | ≤ 0.012 µM | – | –
3 | O=C1CC(c2ccccc2)CC2=C1C(c1ccccc1)N(C(=O)C(=O)N1c3ccccc3NC3=C(C(=O)CC(c4ccccc4)C3)C1c1ccccc1)c1ccccc1N2 (mixture of isomers) | 0.06 µM | ≤ 0.012 µM | – | –
4 | O=C1CC(c2ccccc2)CC2=C1C(c1ccccc1)Nc1ccccc1N2 (mixture of isomers) | 20 µM | ≤ 0.012 µM | – | –
5 | COc1cc([C@@H]2Nc3ccccc3NC3=C2C(=O)C[C@@H](c2ccccc2)C3)cc(Cl)c1O (mixture of isomers) | 4.3 µM | ≤ 0.012 µM | – | –
6 | CC1(C)CC(=O)C2=C(C1)Nc1ccccc1N(C(=O)C(F)(F)C(=O)N1c3ccccc3NC3=C(C(=O)CC(C)(C)C3)C1c1ccccc1)C2c1ccccc1 (mixture of isomers) | 0.3 µM | ≤ 0.012 µM | – | –
7 | CC1(C)CC(=O)C2=C(C1)Nc1ccccc1N(C(=O)C(=O)N1c3ccccc3NC3=C(C(=O)CC(C)(C)C3)C1c1ccccc1)C2c1ccccc1 (mixture of isomers; 5) | 0.03 µM | ≤ 0.012 µM | – | –
8 | CC1(C)CC(=O)C2=C(C1)Nc1ccccc1N(C(=O)C(=O)N1c3ccccc3NC3=C(C(=O)CC(C)(C)C3)C1c1ccccc1)C2c1ccccc1 (mixture of isomers; 5a) [listing 1 of 2 here] | 0.03 µM | – | – | –
9 | CC1(C)CC(=O)C2=C(C1)Nc1ccccc1N(C(=O)C(=O)N1c3ccccc3NC3=C(C(=O)CC(C)(C)C3)C1c1ccccc1)C2c1ccccc1 (mixture of isomers; 5a) [listing 2 of 2 here] | – | – | inactive | inactive
10 | CC1(C)CC(=O)C2=C(C1)Nc1ccccc1N(C(=O)C(=O)N1c3ccccc3NC3=C(C(=O)CC(C)(C)C3)C1c1ccccc1)C2 (racemic) | 0.1 µM | ≤ 0.012 µM | – | –
11 | CC1(C)CC(=O)C2=C(C1)Nc1ccccc1NC2c1ccccc1 (racemic) | 110 µM | ≤ 0.012 µM | – | –
